What was measured:
Test in all cases: IA-DTB cysteine engagement
Type in all cases: binding
Details in all cases: 22Rv1 cells, 20 μM probe, 1 h, relative to DMSO
[1] = molecular target: T1, TRPM4_C758 (Homo sapiens, UniProt Q8TD43)
T1 construct: endogenous in cells; host or cells: 22Rv1
Outline: (§1)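 Cells were treated in situ with electrophilic probes, then lysed, and the lysates (2 mg/mL protein) were labeled with IA-DTB for 1 h at ambient temperature. After reduction, alkylation and trypsin digestion, labeled peptides were streptavidin-enriched, TMT-labeled and fractionated. Engagement ratios are probe vs DMSO reporter intensities, averaged across replicates.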

[2] = molecular target: T2, OCIAD1_C98 (Homo sapiens, UniProt Q9NX40)
T2 construct: endogenous in cells; host or cells: 22Rv1
T2 sequence (Q9NX40 1-245): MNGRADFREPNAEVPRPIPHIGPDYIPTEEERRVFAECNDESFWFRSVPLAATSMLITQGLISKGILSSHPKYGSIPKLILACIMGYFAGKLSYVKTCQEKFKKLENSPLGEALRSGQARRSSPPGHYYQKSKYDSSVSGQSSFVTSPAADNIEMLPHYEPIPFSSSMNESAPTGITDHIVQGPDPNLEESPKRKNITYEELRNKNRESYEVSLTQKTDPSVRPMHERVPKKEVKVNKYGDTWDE
Outline: as §1

[3] = molecular target: T3, SCAMP4_C20 (Homo sapiens, UniProt Q969E2)
T3 construct: endogenous in cells; host or cells: 22Rv1
T3 sequence (Q969E2 1-229): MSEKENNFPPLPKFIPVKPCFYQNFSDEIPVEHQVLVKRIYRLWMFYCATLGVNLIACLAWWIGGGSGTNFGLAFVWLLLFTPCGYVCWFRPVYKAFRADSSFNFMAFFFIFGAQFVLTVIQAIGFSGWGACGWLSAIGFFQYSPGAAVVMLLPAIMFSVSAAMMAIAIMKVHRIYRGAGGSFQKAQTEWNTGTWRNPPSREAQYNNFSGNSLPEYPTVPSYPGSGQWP
Outline: as §1

[4] = molecular target: T4, PTGES2_C110 (Homo sapiens, UniProt Q9H7Z7)
T4 construct: endogenous in cells; host or cells: 22Rv1
Outline: as §1

[5] = molecular target: T5, CKAP4_C100 (Homo sapiens, UniProt Q07065)
T5 construct: endogenous in cells; host or cells: 22Rv1
T5 sequence (Q07065 1-602): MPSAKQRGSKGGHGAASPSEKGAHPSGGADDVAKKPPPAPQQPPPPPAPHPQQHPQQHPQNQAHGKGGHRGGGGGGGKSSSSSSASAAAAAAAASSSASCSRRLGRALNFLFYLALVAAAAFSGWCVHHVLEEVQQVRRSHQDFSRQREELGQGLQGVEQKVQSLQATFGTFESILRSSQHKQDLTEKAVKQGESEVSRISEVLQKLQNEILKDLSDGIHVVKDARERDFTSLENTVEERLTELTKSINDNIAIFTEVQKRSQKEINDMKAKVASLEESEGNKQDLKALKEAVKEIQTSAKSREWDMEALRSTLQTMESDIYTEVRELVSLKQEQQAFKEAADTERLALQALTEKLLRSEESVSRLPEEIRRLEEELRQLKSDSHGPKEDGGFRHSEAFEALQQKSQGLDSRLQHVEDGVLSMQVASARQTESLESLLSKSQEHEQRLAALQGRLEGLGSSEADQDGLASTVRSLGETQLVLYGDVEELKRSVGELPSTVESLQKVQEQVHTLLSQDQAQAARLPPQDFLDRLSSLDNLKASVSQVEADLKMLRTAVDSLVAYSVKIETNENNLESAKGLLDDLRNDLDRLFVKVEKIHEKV
Outline: as §1

T4 sequence (Q9H7Z7 whole entry): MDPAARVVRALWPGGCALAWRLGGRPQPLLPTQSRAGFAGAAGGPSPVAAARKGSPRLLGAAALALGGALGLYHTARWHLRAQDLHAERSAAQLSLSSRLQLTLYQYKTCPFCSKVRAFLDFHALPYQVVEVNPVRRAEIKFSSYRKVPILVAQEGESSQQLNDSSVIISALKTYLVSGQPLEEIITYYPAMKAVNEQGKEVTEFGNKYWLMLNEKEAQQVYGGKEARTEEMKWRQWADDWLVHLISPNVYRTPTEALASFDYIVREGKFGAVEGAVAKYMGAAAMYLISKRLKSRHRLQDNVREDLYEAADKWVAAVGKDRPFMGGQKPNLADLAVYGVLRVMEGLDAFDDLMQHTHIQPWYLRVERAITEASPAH
T1 sequence (Q8TD43 whole entry): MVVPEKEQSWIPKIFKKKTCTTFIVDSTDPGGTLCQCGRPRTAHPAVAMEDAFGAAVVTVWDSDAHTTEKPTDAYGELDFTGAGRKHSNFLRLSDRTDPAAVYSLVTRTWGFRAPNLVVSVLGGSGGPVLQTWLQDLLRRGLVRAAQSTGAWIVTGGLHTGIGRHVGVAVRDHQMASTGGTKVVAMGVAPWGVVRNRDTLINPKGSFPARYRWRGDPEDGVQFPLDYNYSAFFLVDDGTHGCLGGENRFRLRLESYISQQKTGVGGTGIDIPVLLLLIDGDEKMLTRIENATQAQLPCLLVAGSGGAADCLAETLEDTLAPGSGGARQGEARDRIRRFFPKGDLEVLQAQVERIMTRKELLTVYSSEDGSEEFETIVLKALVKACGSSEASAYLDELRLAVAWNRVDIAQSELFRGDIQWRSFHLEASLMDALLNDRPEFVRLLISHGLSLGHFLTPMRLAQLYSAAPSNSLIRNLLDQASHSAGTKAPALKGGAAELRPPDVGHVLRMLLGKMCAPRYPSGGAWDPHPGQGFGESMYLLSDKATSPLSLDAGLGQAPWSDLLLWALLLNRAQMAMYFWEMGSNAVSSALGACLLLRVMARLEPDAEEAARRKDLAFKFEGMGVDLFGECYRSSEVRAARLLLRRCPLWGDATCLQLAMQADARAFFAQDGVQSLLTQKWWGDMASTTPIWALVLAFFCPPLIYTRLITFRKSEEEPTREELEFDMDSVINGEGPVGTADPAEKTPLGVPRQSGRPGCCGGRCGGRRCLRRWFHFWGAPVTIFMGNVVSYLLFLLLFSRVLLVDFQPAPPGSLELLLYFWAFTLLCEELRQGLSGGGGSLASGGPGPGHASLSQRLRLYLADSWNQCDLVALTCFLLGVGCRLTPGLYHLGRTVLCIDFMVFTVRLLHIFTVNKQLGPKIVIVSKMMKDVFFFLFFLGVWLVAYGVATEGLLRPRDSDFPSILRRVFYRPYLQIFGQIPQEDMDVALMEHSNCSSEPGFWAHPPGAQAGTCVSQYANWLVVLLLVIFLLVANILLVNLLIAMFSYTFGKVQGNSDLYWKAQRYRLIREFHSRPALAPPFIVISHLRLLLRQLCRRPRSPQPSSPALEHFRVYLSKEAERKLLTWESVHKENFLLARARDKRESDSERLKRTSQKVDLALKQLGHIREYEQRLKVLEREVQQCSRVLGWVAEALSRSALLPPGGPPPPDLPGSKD

SMILES | % engagement TRPM4_C758 [1] [%] | % engagement OCIAD1_C98 [2] [%] | % engagement SCAMP4_C20 [3] [%] | % engagement PTGES2_C110 [4] [%] | % engagement CKAP4_C100 [5] [%]
C=CC(=O)N1C[C@H](c2ccc(Br)cc2)[C@@H]1C(=O)Nc1cccc2cccnc12 [MY-1B, (2R,3S)-1-acryloyl-3-(4-bromophenyl)-N-(quinolin-8-yl)azetidine-2-carboxamide] | 54.5 | 19 | 85.5 | 38.5 | 90.25
C=CC(=O)N1C[C@H](c2ccc(Br)cc2)[C@H]1C(=O)Nc1cccc2cccnc12 [MY-3B, (2S,3S)-1-acryloyl-3-(4-bromophenyl)-N-(quinolin-8-yl)azetidine-2-carboxamide] | 73.5 | 72.5 | 100 | 89.25 | 93.75
C=CC(=O)N1C[C@H](c2ccc(Br)cc2)[C@H]1C(=O)Nc1cccc2cccnc12 [MY-3A, (2S,3S)-1-acryloyl-3-(4-bromophenyl)-N-(quinolin-8-yl)azetidine-2-carboxamide] | 29.5 | 12.5 | 72.5 | 69.75 | 78.75
C=CC(=O)N1C[C@@H](c2ccc(Br)cc2)[C@H]1C(=O)Nc1cccc2cccnc12 [MY-1A, (2S,3R)-1-acryloyl-3-(4-bromophenyl)-N-(quinolin-8-yl)azetidine-2-carboxamide] | 40.5 | 26 | 80 | 31.25 | 84
